This data set is described as follows: Plasma level after oral administration, LC-MS. Particulars: 500 mg/animal, ddY mice, female, 8 weeks, 500 mg/mouse p.o. single dose, sampled at 10, 60, 180 min, n = 3, read-out: time of peak in the plasma (converted). The class given is in vivo. On the procedure: Bioavailability and brain penetration of GPPGPAG was performed as previously described ([Yang et al., 2017]). GPPGPAG (500 mg) was dissolved in 750 μL of physiological saline. GPPGPAG or vehicle solution (physiological saline) was orally administered using an oral gavage to female ddY mice (8 weeks-old). The mice were euthanized at 10, 60, and 180 min after administration. Blood was collected and centrifuged at 10,000 g and 4°C for 10 min to yield plasma. Plasma aliquots (200 μL) were extracted with methanol, dried, sonicated, and resolubilized in 50% methanol (100 μL). The cerebral cortex was also collected after complete saline perfusion for removing blood. […]
FIGURE 6 Brain penetration of GPPGPAG after oral administration in mice GPPGPAG (500 mg/mouse, p. o.) or vehicle solution (physiological saline) was administered to mice (ddY, females, 8 weeks old, n = 3) as a single dose. […] (A) Total ion chromatogram (upper) and extracted ion current chromatogram (lower) of standard GPPGPAG (m/z = 552.2753) at 10 μg/ml for quantification of (B) and (C) data. […] In total ion chromatogram (upper) and extracted ion current chromatogram (lower) of m/z = 552.2753, no peaks were detected. […] In total ion chromatogram and extracted ion current chromatogram of m/z = 552.2753, peaks matching the retention time of GPPGPAG were detected. […]

No end group written: not given here.

GPPGPAG [GPPGPAG]: the Tmax is 10 min.
